From PubChem BioAssay (NCI)
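Assay format: 96-well plates, 48-hour exposure. At the GI50, growth is halved. TGI: concentration producing complete growth inhibition.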

Assays:
Experiment in all cases: growth of human tumour cells (NCI), 48 h
OVCAR-4 ovarian = system: OVCAR-4 ovarian
M14 melanoma = system: M14 melanoma
NCI-H23 lung = system: NCI-H23 lung
SF-539 CNS = system: SF-539 CNS
KM12 colon = system: KM12 colon
HS 578T breast = system: HS 578T breast
SR leukemia = system: SR leukemia
A498 renal = system: A498 renal
SK-OV-3 ovarian = system: SK-OV-3 ovarian
HCC-2998 colon = system: HCC-2998 colon

Row | Compound | GI50 (OVCAR-4 ovarian) [µM] | TGI (OVCAR-4 ovarian) [µM] | GI50 (M14 melanoma) [µM] | TGI (M14 melanoma) [µM] | GI50 (NCI-H23 lung) [µM] | TGI (NCI-H23 lung) [µM] | GI50 (SF-539 CNS) [µM] | TGI (SF-539 CNS) [µM] | GI50 (KM12 colon) [µM] | TGI (KM12 colon) [µM] | GI50 (HS 578T breast) [µM] | TGI (HS 578T breast) [µM] | GI50 (SR leukemia) [µM] | TGI (SR leukemia) [µM] | GI50 (A498 renal) [µM] | TGI (A498 renal) [µM] | GI50 (SK-OV-3 ovarian) [µM] | TGI (SK-OV-3 ovarian) [µM] | GI50 (HCC-2998 colon) [µM] | TGI (HCC-2998 colon) [µM]
1 | OCC#CCCCCOCC#Cc1ccccc1C#CCOCCCCC#CCO | 14.8 | 53.9 | 31.2 | > 100 | 23 | 48.8 | 17.6 | 33.2 | 19.6 | 40.5 | 25 | 65.4 | 43.6 | > 100 | 4.35 | 34.3 | – | – | – | –
2 | COc1ccccc1Nc1nc2ccccc2c2occc12 | 4.13 | 19.3 | 17.3 | 40.4 | 16.3 | 35.9 | 9.76 | 21.5 | 16.1 | > 50 | 22.1 | 49 | 9.33 | 20.3 | 21.2 | 43.1 | 16.1 | > 50 | – | –
3 | O=C([CH-]C(=O)c1ccccc1)c1ccccc1.[CH3-].[CH3-].[CH3-].[Sn+4] | 8.81 | 56.1 | 14.7 | 29.5 | 18.4 | 63.4 | 21.7 | > 100 | 18.1 | > 100 | – | – | 1.93 | 11.5 | 35.4 | > 100 | 27.1 | 70.1 | 18.7 | 47.5
4 | Cc1cccc2cc3cccc(C(=O)NCCN(C)C)c3nc12 | – | 2.32 | – | 2.43 | – | 1.17 | – | 1.61 | – | 6.12 | – | – | – | 0.118 | – | 0.192 | – | 0.619 | – | 1.48
5 | NC1=NCC(c2ccccn2)C1c1ccc(F)cc1 (stereo not drawn) | – | > 100 | – | > 100 | – | > 100 | – | > 100 | – | > 100 | – | – | – | > 100 | – | > 100 | – | > 100 | – | > 100
6 | NCCn1cnc2nc(NC(=O)c3ccccc3)[nH]c(=O)c21 | – | – | – | – | – | > 100 | – | > 100 | – | > 100 | – | – | – | > 100 | – | > 100 | – | – | – | > 100
7 | COc1cc(/C=C2\NC(=S)C3Cc4c(OC)c(C)c(OC)c(OC)c4C2N3C)c(OC)c(C)c1OC (stereo not drawn) | – | > 100 | – | > 100 | – | > 100 | – | > 100 | – | > 100 | – | – | – | 55.3 | – | > 100 | – | > 100 | – | > 100
8 | Cn1ccc2c3c(=O)cc[nH]c3ccc21 | > 100 | > 100 | > 100 | > 100 | > 100 | > 100 | > 100 | > 100 | > 100 | > 100 | 20.2 | > 100 | > 100 | > 100 | – | – | 80.1 | > 100 | > 100 | > 100
